# Values quoted from earlier work, collected in patent publication US7700560B2 (University of Maryland, Baltimore County, priority 2003, dated 2010).
# Key:
# [1] = tested on: lung tumor cell lines NCI-H460, NCI-H226, A549, NCI-H23, DMS273, DMS114, NCI-H522; conditions: dicyclopentyl diester; cited from earlier work
# [2] = tested on: DMS114 lung and DU145 prostate xenografts; conditions: dicyclopentyl diester; cited from earlier work
structure (smiles),measurement,setting,value
NC(CCC(=O)NC(CSCc1ccc(Br)cc1)C(=O)NCC(=O)OC1CCCC1)C(=O)OC1CCCC1 (centres unmarked),inhibition of lung tumor cell lines in vitro,[1],effectively inhibited
same,inhibition of DMS144 and human prostate DU145 xenografts in nude mice,[2],effectively inhibited
